From publication PMC7673538 (PLoS Biology, 2020)
Values joined by “and” are separate entries in the source; they are usually repeats but may differ in a detail not shown here. Identical values can stand only once. Like-named read-outs stand apart in the source and are kept apart here.

Assays:
[1] = test system: CV-A24v; assay: microbe, parasite or virus in culture; format: cell-based, coxsackievirus A24v
[2] = test system: EV-A71; assay: microbe, parasite or virus in culture; format: cell-based, enterovirus A71
[3] = test system: HRV-B14; assay: microbe, parasite or virus in culture; format: cell-based, human rhinovirus
[4] = biological target: T1, human NET (Homo sapiens, UniProt P23975); format: cell-based; details: for NET, Mean (Figure 8B): Control = 100; for NET, Mean as % (Figure 8B): Control = 100%
T1 construct: expressed in transfected cells; host or cells: HEK293 (gift of Dr. Hoener, F. Hoffmann-La Roche)

[5] = test system: representative EVs and RVs; format: cell-based
[6] = test system: CV-B3; assay: microbe, parasite or virus in culture; format: cell-based, coxsackievirus B3

T1 sequence (P23975 whole entry): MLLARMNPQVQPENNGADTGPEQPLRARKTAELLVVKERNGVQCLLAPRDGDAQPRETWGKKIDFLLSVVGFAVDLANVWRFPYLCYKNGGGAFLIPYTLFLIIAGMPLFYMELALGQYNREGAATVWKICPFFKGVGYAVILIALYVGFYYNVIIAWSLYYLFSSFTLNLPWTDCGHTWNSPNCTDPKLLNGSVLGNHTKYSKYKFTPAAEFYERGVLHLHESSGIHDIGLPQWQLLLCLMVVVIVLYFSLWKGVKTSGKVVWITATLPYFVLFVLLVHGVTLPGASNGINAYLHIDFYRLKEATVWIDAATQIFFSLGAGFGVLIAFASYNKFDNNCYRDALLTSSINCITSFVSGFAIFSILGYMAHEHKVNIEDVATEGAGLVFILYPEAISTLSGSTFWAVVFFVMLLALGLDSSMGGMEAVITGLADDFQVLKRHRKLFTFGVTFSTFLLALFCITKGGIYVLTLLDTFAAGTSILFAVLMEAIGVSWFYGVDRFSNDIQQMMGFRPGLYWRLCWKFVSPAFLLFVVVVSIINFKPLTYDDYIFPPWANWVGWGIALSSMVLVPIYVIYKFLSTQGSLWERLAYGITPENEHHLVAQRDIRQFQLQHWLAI

O=C(c1cc[nH]c1)N(Cc1ccc(F)cc1)c1ccccc1 [Compound 12b, N-(4-Fluorobenzyl)-N-phenyl-1H-pyrrole-3-carboxamide]
Figure 7 dose-response raw data, CV-A24v (triplicate values) ([1]; Concentration 0.1235 µM): 14.8126 and 12.909 and 19.2147 | Figure 7 dose-response raw data, CV-A24v (triplicate values) ([1]; Concentration 0.3704 µM): 14.8126 and 13.6228 and 22.1892 | Figure 7 dose-response raw data, CV-A24v (triplicate values) ([1]; Concentration 1.1111 µM): 14.8126 and 13.6228 and 22.1892 | Figure 7 dose-response raw data, CV-A24v (triplicate values) ([1]; Concentration 3.3333 µM): 106.3 and 102.374 and 110.232 | Figure 7 dose-response raw data, CV-A24v (triplicate values) ([1]; Concentration 11.1111 µM): 105.473 and 108.334 and 112.487 | Figure 7 dose-response raw data, CV-A24v (triplicate values) ([1]; Concentration 33.3333 µM): 98.3206 and 97.0611 and 97.1756 | Figure 7 dose-response raw data, CV-A24v (triplicate values) ([1]; Concentration 100 µM): 82.2926 and 86.3728 and 89.8506 | EC50 ([1]; Coxsackievirus, HeLa R19, read-out: Table in Figure 7A, CVA24v, AVERAGE): 1340 nM | EC50 ([1]; Coxsackievirus, HeLa R19, read-out: Table in Figure 7A, CVA24v, exp1-exp3): 1110 nM | EC50 ([1]; read-out: Table in Figure 7A, CVA24v, exp1-exp3): 1230 nM and 1670 nM | Figure 7 dose-response raw data, EV-A71 (triplicate values) ([2]; Concentration 0.0046 µM): 8.524 and 14.1813 and 13.8349 | Figure 7 dose-response raw data, EV-A71 (triplicate values) ([2]; Concentration 0.0137 µM): 8.178 and 10.6023 and 11.4104 | Figure 7 dose-response raw data, EV-A71 (triplicate values) ([2]; Concentration 0.0412 µM): 8.755 and 10.1405 and 13.8349 | Figure 7 dose-response raw data, EV-A71 (triplicate values) ([2]; Concentration 0.1235 µM): 8.6396 and 9.794 and 10.7177 | Figure 7 dose-response raw data, EV-A71 (triplicate values) ([2]; Concentration 0.3704 µM): 31.7298 and 16.0285 and 26.5345 | Figure 7 dose-response raw data, EV-A71 (triplicate values) ([2]; Concentration 1.1111 µM): 89.9407 and 116.561 and 102.065 | Figure 7 dose-response raw data, EV-A71 (triplicate values) ([2]; Concentration 3.3333 µM): 91.1267 and 117.088 and 97.8476 | Figure 7 dose-response raw data, EV-A71 (triplicate values) ([2]; Concentration 11.1111 µM): 100.747 and 119.064 and 107.468 | Figure 7 dose-response raw data, EV-A71 (triplicate values) ([2]; Concentration 33.3333 µM): 107.747 and 119.064 and 117.468 | Figure 7 dose-response raw data, EV-A71 (triplicate values) ([2]; Concentration 100 µM): 110.747 and 119.064 and 107.468 | EC50 ([2]; Enterovirus A, EVA71, HeLa R19, read-out: Table in Figure 7A, EV-A71, AVERAGE): 490 nM | Figure 7 dose-response raw data, HRV_B14 (triplicate values) ([3]; Concentration 0.0046 µM): 15.2266 and 14.5606 | Figure 7 dose-response raw data, HRV_B14 (triplicate values) ([3]; Concentration 0.0137 µM): 10.2522 and 17.3246 and 10.943 | Figure 7 dose-response raw data, HRV_B14 (triplicate values) ([3]; Concentration 0.0412 µM): 15.2266 and 14.5606 and 17.3246 | Figure 7 dose-response raw data, HRV_B14 (triplicate values) ([3]; Concentration 0.1235 µM): 106.02 and 106.455 and 105.786 | Figure 7 dose-response raw data, HRV_B14 (triplicate values) ([3]; Concentration 0.3704 µM): 105.351 and 107.391 and 106.589 | Figure 7 dose-response raw data, HRV_B14 (triplicate values) ([3]; Concentration 1.1111 µM): 98.3946 and 107.926 and 101.94 | Figure 7 dose-response raw data, HRV_B14 (triplicate values) ([3]; Concentration 3.3333 µM): 99.5652 and 104.147 and 110.034 | Figure 7 dose-response raw data, HRV_B14 (triplicate values) ([3]; Concentration 11.1111 µM): 98.3946 and 107.926 and 101.94 | Figure 7 dose-response raw data, HRV_B14 (triplicate values) ([3]; Concentration 33.3333 µM): 99.2522 and 114.147 and 100.034 | Figure 7 dose-response raw data, HRV_B14 (triplicate values) ([3]; Concentration 100 µM): 99.5652 and 104.147 and 100.034 | EC50 ([3]; Human rhinovirus sp., HRV14 / HRVB14, HeLa R19, read-out: Table in Figure 7A, HRV14, AVERAGE): 95.3 nM | EC50 ([3]; Human rhinovirus sp., HRV14 / HRVB14, HeLa R19, read-out: Table in Figure 7A, HRV14, exp1-exp3): 112 nM | EC50 ([3]; Human rhinovirus sp., HRVB14, HeLa R19, read-out: EC50 HRV-B14): 95 ± 120 nM | EC50 ([3]; read-out: Table in Figure 7A, HRV14, exp1-exp3): 90 nM and 84 nM | NET, Mean (Figure 8B) ([4]; 1µM): 100 | NET, Mean as % (Figure 8B) ([4]; 1µM): 100% | NET, Mean (Figure 8B) ([4]; 100µM): 103.417 | NET, Mean as % (Figure 8B) ([4]; 100µM): 103% | inhibition of NET function (in words) ([4]; HEK293 cells expressing human NET, 1 μM or 100 μM): neither 12a, 19b, 19d, nor the combined compound 12b inhibited | spectrum of antiviral activity (in words) [5]: improved antiviral profile against all tested viruses | Figure 7 dose-response raw data, CV-B3 (triplicate values) ([6]; Concentration 0.001 µM): 12.7273 and 16.4436 and 14.7652 | Figure 7 dose-response raw data, CV-B3 (triplicate values) ([6]; Concentration 0.0046 µM): 88.2521 and 78.519 and 79.7121 | Figure 7 dose-response raw data, CV-B3 (triplicate values) ([6]; Concentration 0.0137 µM): 101.732 and 101.506 and 105.007 | Figure 7 dose-response raw data, CV-B3 (triplicate values) ([6]; Concentration 0.0412 µM): 102.861 and 101.167 and 103.426 | Figure 7 dose-response raw data, CV-B3 (triplicate values) ([6]; Concentration 0.1235 µM): 99.9247 and 100.263 and 102.748 | Figure 7 dose-response raw data, CV-B3 (triplicate values) ([6]; Concentration 0.3704 µM): 101.957 and 103.877 and 102.635 | Figure 7 dose-response raw data, CV-B3 (triplicate values) ([6]; Concentration 1.1111 µM): 101.393 and 99.9247 and 103.426 | Figure 7 dose-response raw data, CV-B3 (triplicate values) ([6]; Concentration 3.3333 µM): 102.974 and 100.151 and 104.555 | Figure 7 dose-response raw data, CV-B3 (triplicate values) ([6]; Concentration 10 µM): 101.167 and 95.9721 and 104.668 | EC50 ([6]; Enterovirus B, CVB3, HeLa R19, read-out: Table in Figure 7A, CV-B3, AVERAGE): 2.9 nM | EC50 ([6]; Enterovirus B, CVB3, HeLa R19, read-out: Table in Figure 7A, CV-B3, exp1-exp3): 2.98 nM | EC50 ([6]; read-out: Table in Figure 7A, CV-B3, exp1-exp3): 3.2 nM and 2.55 nM
